# Measurements as given in US11202789B2, “Method of treating glycogen storage disease” (Viking Therapeutics, Inc., priority 2016, dated 2021).
# Test system: male ob/ob mice
# Experiment: 9-week efficacy and safety study in male ob/ob mice
# Format: in vivo
# Settings: T3 100 nmole/kg/day SC
# Protocol: The objective of this study was to evaluate the efficacy and safety of Compound 2 treatment at doses of 3, 10, and 30 mg/kg/day for 9 weeks in male ob/ob mice. 3,3′,5-Triiodo-L-thyronine (T3) was used as a comparator in this study.
# Methods: Seventy-eight adult male ob/ob mice were assigned to six different treatment groups (n=6-24/group). Animals were dosed daily with either vehicle [1% carboxymethylcellulose (CMC) in water, PO], T3 [(100 nmole/kg/day in aqueous solution, subcutaneous (SC)], or Compound 2 [3, 10 or 30 mg/kg/day in 1% CMC, PO]. Blood glucose and plasma cholesterol were measured weekly in all animals. Subsets of animals in the vehicle-treated and 30 mg/kg/day Compound 2-treated groups were sacrificed after 3, 6 and 9 weeks of treatment to analyze the temporal effects of Compound 2 on liver weight and liver triglyceride levels. Liver triglyceride levels, liver glycogen content, heart, liver and epididymal fat pad weights, and plasma clinical chemistry parameters were measured at sacrifice.
smiles,measurement,setting,value
"N[C@@H](Cc1cc(I)c(Oc2ccc(O)c(I)c2)c(I)c1)C(=O)O [Compound T3, 3,3′,5-Triiodo-L-thyronine, reference compound]",ALT levels,,decreased
same,increased plasma triglyceride levels,,~56%
same,plasma albumin levels,,decreased
same,plasma calcium levels,,decreased
same,total plasma protein levels,,decreased
same,liver weight,9 weeks,lower
same,blood glucose levels,"all time points, vs vehicle",similar
same,total plasma cholesterol lower,"at 9 weeks, vs vehicle",~66%
same,terminal liver glycogen levels,vs vehicle,similar
same,terminal liver triglyceride levels,vs vehicle,similar
